What was measured:
Assay type in all cases: in vivo
[1] = test system: MPTP-induced PD mouse model; experiment: MPTP-induced PD mouse model: TH staining of striatum and substantia nigra; conditions: for TH levels in the striatum / TH levels in the substantia nigra: vs control group (G1); for TH levels in substantia nigra / TH levels in striatum: PO QD Day 1-7, Example 3 2/10/50 mg/kg, Example 2 50 mg/kg, vs MPTP group G2; for TH levels in striatum: Nilotinib 40 mg/kg
Experimental: Mice at 7 weeks of age were divided into 7 groups as shown in Table 9 below to generate an acute MPTP model and proceed with drug administration: control group+vehicle (G1), MPTP+vehicle (G2), MPTP+Nilotinib 40 mg/kg (G3), MPTP+Example 3 2 mg/kg (G4), MPTP+Example 3 10 mg/kg (G5), MPTP+Example 3 50 mg/kg (G6), and MPTP+Example 2 50 mg/kg (G7). The test drug was administered orally (PO) at 10 ml/kg once daily (QD) from Day 1 to Day 7. The acute MPTP model will be performed at 2-hour intervals in all groups except the control group. […] was administered as intraperitoneal (IP) injection for 4 doses. The control group was given the same amount of 0.9% saline. The Pole test was performed on day 4 (after training on day 2 and day 3). On day 7, all mice were euthanized, and their brains were harvested.
Mice were euthanized with Zoletil administration for collection of tissue samples for staining and analysis of histological sections. Blood was collected from the heart of the mouse and then the residual blood was perfused with phosphate-buffered saline (PBS). For half of the mice (n=6/group), the brain was incised into the striatum, substantia nigra, and the rest of the brain, flash-frozen, and stored at −80° C. The remaining mice (n=6/group) had their brains isolated and immobilized in 4% paraformaldehyde for 24 hours at 4° C., followed by 30% sucrose in phosphate-buffered saline (PBS) containing 0.02% sodium azide and stored at 4° C. for 3 days. Immunohistochemical sections were performed on brain samples embedded with optimal cutting temperature (OCT) compounds. Samples were sectioned to a thickness of 20 μm using Leica CM1950 (Leica Microsystems, Germany) and stored at 4° C. in a preservation solution until staining with antibodies.
After staining the striatum and substantia nigra of the brain and mounting them on microscopic slides, the slides were washed with PBS containing 0.3% Triton X-100 and peroxidase block for 15 min at room temperature. The slides were washed three times with PBS containing 0.3% Triton X-100 and then blocked at RT (room temperature) for 1 hour in a solution containing PBS, 5% normal goat serum, and 0.3% Triton X-100. Tyrosine hydroxylase antibody was diluted at 1:1000 and incubated overnight at 4° C. The slides were washed with PBS solution and incubated for 1 h at RT with secondary antibody. The slides were washed with PBS solution and the sections were placed in the solution to proceed with the DAB (diaminobenzidine) reaction.
The DAB response was monitored under a microscope for 2 to 3 minutes, and the slides were washed with PBS to stop the DAB response, dehydrated, and mounted using xylene. An Olympus microscope (Olympus, SZ61, BX51) was used to visualize TH stained images. The optical density (OD) value of positive TH staining was measured in the striatum and substantia nigra and analyzed using Image J software.

[2] = test system: SOD1 G93A transgenic ALS mouse model; experiment: SOD1 G93A transgenic ALS mouse model: grip strength; conditions: 30 mg/kg PO QD from 8 weeks of age; vs G2
Experimental: (§1) The test drug was administered once daily (QD) via oral administration (PO) in a solution of 5 mL/kg from 8 weeks of age until death. Body weight was measured weekly, and disease score was measured daily from 8 weeks until the death of the animal. Motor behavior tests (grip strength) and neurological score tests (modified Irwin test) were performed at 9, 11, 13, 15, 17, 19, and 21 weeks, respectively. The survival of the mice was monitored daily.
Grip strength measurements were performed on mice aged 9, 11, 13, 15, 17, 19, and 21 weeks of age. The mouse was placed on a grip strength measurement device (San Diego Instruments, San Diego, USA) in such a way that the mouse grabbed the handle of a small mesh with its front paws. I put the mouse down on the platform and then slowly pulled the handle […] until the mouse released the handle. The device automatically measured the grip strength of the mouse in grams. Five scores per mouse were recorded consecutively in a one-day session.

[3] = test system: SOD1 G93A transgenic ALS mouse model; experiment: SOD1 G93A transgenic ALS mouse model: survival; conditions: 30 mg/kg PO QD from 8 weeks of age until death; vs G2
Experimental: as §1
The survival of the mice was monitored daily. The survival age of mice was recorded and labeled as Kaplan Meier survival plots.

[4] = test system: Reserpine-induced fibromyalgia rat model; experiment: Reserpine-induced fibromyalgia rat model: pain (von Frey test)
Experimental: Reserpine-induced fibromyalgia model generation and drug administration were carried out on 6-week-old male SD rats divided into 6 groups as shown in Table 15 below: control group (G1), reserpine+delivery (G2), reserpine+gabapentin 50 mg/kg (G3), reserpine+Example 2 3 mg/kg (G4), 10 mg/kg (G5), and 30 mg/kg (G6). To create a rat fibromyalgia model, reserpine (Sigma-aldrich, 1 mg/kg) dissolved in 0.5% acetic acid was administered subcutaneously once for 3 days from 3 days before the start of the experiment. Beginning on Day 1, the once-daily (QD) delivery body, gabapentin, and embodiment 2 were administered intraperitoneally (IP) or orally (PO) 2 hours before the experiment was performed.
The right hind foot tactile response test (von Frey test) was performed 5 times (before the fibromyalgia model, and on the 1st, 2nd, 4th and 6th days after the model was generated). Before all behavioral tests, rats were accustomed to the environment for 30 minutes, and all experimenters performing behavioral tests were made blind to drug administration information. Before model generation, baseline measurements were performed by performing the von Frey test on all rats. The rat was placed on a wired mesh and placed in a transparent plastic box (20×20×14 cm), and the foot withdrawal threshold was measured by applying a von Frey filament (ascending weight: 0.4, 0.6, 1.4, 2, 4, 6, 8, and 15 g, North Coast) to the middle of the right hind foot to assess foot allodynia.

Compound | TH levels in the striatum ([1]; 10 mg/kg PO QD) | TH levels in the substantia nigra ([1]; 10 mg/kg PO QD) | TH levels in the striatum ([1]; 50 mg/kg PO QD) | TH levels in the substantia nigra ([1]; 50 mg/kg PO QD) | TH levels in substantia nigra [1] | TH levels in striatum [1] | grip strength [2] | survival rate [3] | pain improvement efficacy (von Frey test) ([4]; 30 mg/kg PO QD) | sensitivity (foot withdrawal threshold, von Frey test) ([4]; gabapentin 50 mg/kg IP QD, Example 2 3, 10, 30 mg/kg PO QD, days 1, 2, 4, 6)
Cc1cc(F)c(C(=O)Nc2cccc(-n3nnc4c3CCCC4)n2)cc1-n1cnc(C2CC2)c1 [Example 3, 5-(4-cyclopropyl-1H-imidazole-1-yl)-2-fluoro-4-methyl-N-(6-(4,5,6,7-tetrahydro-1H-benzo[d][1,2,3]triazole-1-yl)pyridine-2-yl)benzamide] | significantly higher than in the control group (G1) | significantly higher than in the control group (G1) | significantly higher than in the control group (G1) | significantly higher than in the control group (G1) | significant increase | significant increase | tended to increase grip strength compared to group G2, and the grip strength increased significantly from 19 weeks | tendency to improve survival rate, although it was not significant compared to group G2 |  | 
Cc1cc(F)c(C(=O)Nc2cccc(-n3nnc4c3CCC4)n2)cc1-n1cnc(C2CC2)c1 [Example 2, 5-(4-cyclopropyl-1H-imidazole-1-yl)-N-(6-(5,6-dihydrocyclopenta[d][1,2,3]triazole-1 (4H)-yl)pyridine-2-yl)-2-fluoro-4-methylbenzamide] |  |  |  | significantly higher than in the control group (G1) | significant increase | significant increase |  |  | significant efficacy | gradually improved over time

From patent publication US20260138969A1 (Korea Research Institute of Chemical Technology, priority 2023, published 2026)
